Results as given in US20080015224A1, “Nitroxide superoxide dismutase mimetics to treat extracellular superoxide dismutase deficiencies” (priority 2006, published 2008).
“Also recorded” adds a separate entry of the source.

How the values were obtained:
[1] = system: spontaneously hypertensive rat (SHR); test: Acute antihypertensive response (MAP, HR) to graded intravenous doses in anesthetized SHR; assay type: in vivo; conditions: for acute change in MAP and HR: graded intravenous doses (nitroxides 17-270 μmol/kg; SOD 34-540 U/kg)
Method: Experiments were approved by the Georgetown University Animal Care and Use Committee. Male SHR weighing 250-350 g (Taconic, Germantown, N.Y.) were anesthetized with thiobutabarbital (Inactin; Sigma, St. Louis, Mo.) (10 mg/100 g) after halothane (Halocarbon Laboratories, River Edge, N.J.) induction. Rats received 0.9% NaCl at 2 ml/h IV up to the time of receiving drugs to maintain euvolemia. A femoral artery was cannulated with polyethelene (PE)-50 tubing connected to a digital blood pressure analyzer (Micro-Med, Louisville, Ky.). Animals were equilibrated for 45 min. Thereafter, a nitroxide (17 μmol/kg) was infused intravenously over 10 s. The mean arterial pressure (MAP) and heart rate (HR) were recorded over the first 5 min and at 10 and 15 min. This was followed by doses of 54, 72, 174, and 270 μmol/kg under similar conditions. The same protocol was followed with each nitroxide: T, 4-oxo-tempo (OT), 4-amino-tempo (AT), 3-carboxy-peroxyl (3-CTPY) (Aldrich, Milwaukee, Wis.), 3-carbomyl-proxyl (3-CP) (Sigma), and 4-trimethylammonium-2,2,6,6,-tetramethylpiperidine-1-oxyl iodide (CAT-1) (Molecular Probes, Eugene, Oreg.) (FIG. 3). Doses of bovine Cu/Zn SOD (MW 32,500; Oxis Research, Portland, Oreg.) were selected that had equivalent SOD mimetic activity in vitro to the doses of T used for intravenous studies: 34, 110, 140, 260, 350, and 540 U/kg. SOD injection followed a similar protocol to the nitroxides and was compared with vehicle-injected rats. Additional rats received injections of previously boiled SOD as a further control group. Six rats were studied in each group.
The mean±SE changes in MAP and HR were calculated from the individual dose-response relations. The responsiveness was the maximum effect, and the sensitivity was the expected dose for ED50. Data were analyzed by ANOVA with post hoc testing by the Dunnett test, where appropriate. Statistical significance was taken as P<0.05.

[2] = system: O2−. generated by xanthine plus xanthine oxidase; test: Inhibition of O2−. generated by xanthine-xanthine oxidase in vitro (SOD mimetic activity, lucigenin chemiluminescence); assay type: biochemical; conditions: for Maximum inhibition, %: O2−. generated by xanthine-xanthine oxidase in vitro, means ± SE, 5 studies; for O2−. generated by a xanthine-xanthine oxidase reaction extinguished: tested in PBS at 10^−4 M
Method: The SOD activities of Ns were evaluated in vitro for their efficacy in dampening O2^−. generated by xanthine (25 μmol/l) plus xanthine oxidase (9 IU/ml). Their lipid solubility was assessed by shaking the Ns in a 50:50 mixture of PBS (Ambion, Austin, Tex.) and chloroform (CHCl3; EM Science, Gibbstown, N.J.), taking an aliquot of the PBS phase, evaporating the CHCl3phase to dryness, reconstituting it in PBS, and assessing the SOD activities in the two solutions. O2^−. was assessed by chemiluminescence with 5 μM lucigenin (AutoLumatPlus LB 953; EG&G, Berthold, Germany). The reduction in the stable peak value for chemiluminescence for each N, relative to vehicle, defined the SOD mimetic activity.
SOD activity by the nitroxides was assessed in vitro (Table 1). […] The ratio of the activity that partitioned into CHCl3 compared with PBS was examined.

[3] = system: O2−. generated by xanthine plus xanthine oxidase; test: as above; assay type: biochemical; conditions: means ± SE
[4] = system: cremasteric microvessels in the anesthetized mouse; test: In vivo EDRF (acetylcholine-induced vasodilation) responses of cremasteric microvessels; conditions: 10^−4 M tempol in superfusate; EC-SOD −/− mice and mice infused with Ang II 400 ng·kg^−1·min^−1 sc × 12 days
Method: FIG. 18: In vivo EDRF responses of cremasteric vessels are impaired by EC-SOD knockout or prolonged angiotensin II infusion but are restored by superfusion of tempol. Mean±SEM (n=c6 per group). Ang II infusion at 400 ng·kg^−1·min^−1 sc×12 days. T, 10^−4 M tempol in superfusate. Basal diameter 39±0.4 μm (similar in each group). Compared to EC-SOD +/+; *, p<0.05. Compared to vehicle infusion: †, p<0.05. All effects of tempol, p<0.005.
Our current studies have shown that the SOD mimetic drug tempol, when superfused over cremasteric microvessels in the anesthetized mouse, increases that acetylcholine-induced vasodilation response. This effect of acetylcholine is reduced in the EC-SOD (−/−) mouse and in normal and EC-SOD (−/−) mice infused for 12 days with Ang II which causes oxidative stress that bioinactivates nitric oxide which is a mediator of this response. […] This is important since acetylcholine-induced vasodilation is a test of endothelium-dependent relaxation (EDR). Defects in EDR are related to oxidative inactivation of nitric oxide and underlie many CVD risk factors. Thus defects in EDR could be the focus for abnormal vascular responses and increased CVD events in subjects with the R213G SNIP of EC-SOD.

[5] = system: mesenteric resistance arteries (MRAs) from EC-SOD −/− and +/+ mice; test: Contraction of isolated mesenteric resistance arteries (myograph); conditions: vessels from EC-SOD −/− mice; bath addition, 20 min; tempol 10^−4 M, PEG-SOD 100 units·ml^−1, catalase 300 units·ml^−1
Method: FIG. 19: Responses of mouse isolated mesenteric resistance vessles to endothelin-1: comparison of EC-SOD +/+ with −/−. (A) Contraction to endothelin-1, (B) Superoxide production with endothelin-1. Mean±SEM values (n=6-8 per group). Response to endothelin-1 in vessels incubated for 20 min with vehicle, tempol (10^−4 M), PEG-SOD (100 units·ml^−1), and catalase (300 units·ml^−1). Compared to vehicle, ***, p<0.005.
(§1) Reactive oxygen spice (ROS) and endothelin-1 (ET-1) contribute to angiotensin-induced hypertension. We used isolated mesenteric resistance arteries (MRAs) from EC-SOD knockout (−/−) mice (n=10) and EC-SOD wild type (+/+) mice (n=10), as a model to investigate the hypothesis that microvascular ET-1 and superoxide anion (O2.^−) interact to enhance contractility. Tension and O2.^− were quantitated in real time in dihydroethidium (DHE)-loaded MRAs in a myograph equipped with a dual-emission photon detection fluorescence system to measure ethidium (Eth): DHE ratio (E/D) as a direct readout of O2.^− activity. […] PEG-SOD normalized augmented ET-1 contraction (64±4% vs 71±3%; p=ns) and prevent an increase in E/D ratio in MRAs from −/− (0.6±0.5 vs 0.5±0.8, p=ns). In summary, ET-1 generates microvascular O2.^− that enhances its vasoconstrictive action.

[6] = measured previously in the literature; cited from earlier work
[7] = system: mesenteric resistance arteries (MRAs) from EC-SOD −/− and +/+ mice; test: Superoxide as ethidium:DHE ratio (E/D) in dihydroethidium-loaded mesenteric resistance arteries; conditions: dihydroethidium-loaded vessels from EC-SOD −/− mice; tempol 10^−4 M, PEG-SOD 100 units·ml^−1, catalase 300 units·ml^−1
Description: as §1
A current study contrasts the responses to endothelin-1 (ET-1) in mesenteric resistance vessels from EC-SOD (−/−) and (+/+) mice. […] Parallel studies of vascular superoxide in dihydroethidium-loaded vessels show enhanced conversion to ethidium, indicating enhanced superoxide formation, in vessels from EC-SOD −/−mice. […] We conclude that in the model system of SOD deficiency caused by gene deletion of EC-SOD in the mouse, tempol can correct enhanced contractions and enhanced oxidative stress. It is thereby envisioned as being effective in preventing hypertension and cardiovascular disease.

cell membranes = conditions: cited from earlier work

| SMILES | acute change in MAP and HR [1] | Maximum inhibition, % [2] | O2−. generated by a xanthine-xanthine oxidase reaction extinguished [2] | ED50, μmol/kg [3] | acetylcholine-induced vasodilation (EDRF) response [4] | maximal reduction in MAP (comparison between compounds) ([1]; graded intravenous doses) | time to maximum reductions in MAP and HR ([1]; graded intravenous doses) | effect on enhanced contractions to ET-1 [5] | redox midpoint potential E1/2 [6] | effect on enhanced superoxide formation with ET-1 [7] | permeation of cells (cell membranes) |
| --- | --- | --- | --- | --- | --- | --- | --- | --- | --- | --- | --- |
| CC1(C)CC(C(=O)O)C(C)(C)N1[O] (centres unmarked) [Compound 3-CTPY, 3-carboxy-peroxyl] | ineffective; also recorded: did not | 15 ± 3 % | significantly lower fraction | ∞† |  |  |  |  |  |  |  |
| CC1(C)CC(O)CC(C)(C)N1[O] [T, 4-hydroxy-2,2,6,6-tetramethyl-1 piperidinyloxy] | decreased MAP and HR acutely | 92 ± 1% | 92% |  | restored to normal | greater maximal fall in MAP with T than CAT-1; also recorded: greatest reductions in MAP | ≤ 1 min | normalized | 800 mV | normalized | permeates cell membranes freely |
